ChEMBL document CHEMBL3352529 (J Med Chem, 2014)

Experiments:
Neuraminidase [1] = biological target: T1, Neuraminidase (Influenza A virus, UniProt B4URF0); set-up: species or system A/chicken/china/415/2013(H9N2)
Neuraminidase [2] = biological target: T2, Neuraminidase (Influenza A virus, UniProt A5Z252); test: Inhibition of Influenza A virus A/chicken/china/1220/2012(H5N1) Neuraminidase N1
Neuraminidase [3] = biological target: T1, Neuraminidase; test: Binding affinity to Influenza A virus A/Paris/2590/2009 H1N1 Neuraminidase N1
Neuraminidase [4] = biological target: T2, Neuraminidase; test: Binding affinity to Influenza A virus H5N1 Neuraminidase N1
Neuraminidase [5] = biological target: T2, Neuraminidase; test: Binding affinity to Influenza A virus H3N2 Neuraminidase N1
Neuraminidase [6] = biological target: T2, Neuraminidase; test: Inhibition of Influenza A virus H1N1 Neuraminidase N1
Neuraminidase [7] = biological target: T2, Neuraminidase; test: Inhibition of Influenza A virus H3N2 Neuraminidase N1

T1 sequence (B4URF0 whole entry): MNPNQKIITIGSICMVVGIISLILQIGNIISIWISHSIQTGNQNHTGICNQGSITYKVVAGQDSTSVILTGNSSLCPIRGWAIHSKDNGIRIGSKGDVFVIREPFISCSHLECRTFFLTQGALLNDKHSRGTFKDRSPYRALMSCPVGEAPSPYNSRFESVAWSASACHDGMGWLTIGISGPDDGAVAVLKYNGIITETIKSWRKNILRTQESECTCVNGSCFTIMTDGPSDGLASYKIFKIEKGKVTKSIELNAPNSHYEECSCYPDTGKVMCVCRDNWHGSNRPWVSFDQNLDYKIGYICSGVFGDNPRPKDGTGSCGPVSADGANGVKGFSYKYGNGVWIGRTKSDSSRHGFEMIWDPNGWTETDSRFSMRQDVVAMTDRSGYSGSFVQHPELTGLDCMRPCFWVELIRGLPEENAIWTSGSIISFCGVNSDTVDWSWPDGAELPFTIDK

SMILES | IC50 (Neuraminidase [1]) [nM] | IC50 (Neuraminidase [2]) [nM] | other results
CCC(CC)O[C@@H]1C=C(C(=O)O)C[C@H](N(Cc2ccccc2)C(=N)N)[C@H]1NC(C)=O | 2600 | 1170 | –
CCC(CC)O[C@@H]1C=C(C(=O)NO)C[C@H](NC(=N)N)[C@H]1NC(C)=O | 200 | > 100 | –
CCC(CC)O[C@@H]1C=C(C(=O)NO)C[C@H](N)[C@H]1NC(C)=O | 110 | > 100 | –
CCC(CC)O[C@@H]1C=C(C(=O)O)C[C@H](N(Cc2cccs2)C(=N)N)[C@H]1NC(C)=O | 210 | 200 | –
CCC(CC)O[C@@H]1C=C(C(=O)O)C[C@H](N(Cc2ccc(C(C)C)cc2)C(=N)N)[C@H]1NC(C)=O | 2370 | 1440 | –
CCC(CC)O[C@@H]1C=C(C(=O)O)C[C@H](N(Cc2ccccc2OC)C(=N)N)[C@H]1NC(C)=O | 490 | 550 | –
CCC(CC)O[C@@H]1C=C(C(=O)O)C[C@H](N(Cc2ccc(-c3ccccc3)cc2)C(=N)N)[C@H]1NC(C)=O | 470 | 150 | –
CCCN(C(=N)N)[C@H]1CC(C(=O)O)=C[C@@H](OC(CC)CC)[C@@H]1NC(C)=O | > 5000 | 670 | –
CCC(CC)O[C@@H]1C=C(C(=O)O)C[C@H](N(CC(C)C)C(=N)N)[C@H]1NC(C)=O | > 5000 | 230 | –
CCCCCN(C(=N)N)[C@H]1CC(C(=O)O)=C[C@@H](OC(CC)CC)[C@@H]1NC(C)=O | > 5000 | 780 | –
CCCCN(C(=N)N)[C@H]1CC(C(=O)O)=C[C@@H](OC(CC)CC)[C@@H]1NC(C)=O | 1480 | 1140 | –
CCC(CC)O[C@@H]1C=C(C(=O)O)C[C@H](N(CCC(C)C)C(=N)N)[C@H]1NC(C)=O | > 5000 | 370 | –
CCC(CC)CN(C(=N)N)[C@H]1CC(C(=O)O)=C[C@@H](OC(CC)CC)[C@@H]1NC(C)=O | > 5000 | 950 | –
CCC(CC)O[C@@H]1C=C(C(=O)O)C[C@H](N(CCCc2ccccc2)C(=N)N)[C@H]1NC(C)=O | > 5000 | 790 | –
CCC(CC)CN[C@H]1CC(C(=O)O)=C[C@@H](OC(CC)CC)[C@@H]1NC(C)=O | 300 | 27 | –
CCCCN[C@H]1CC(C(=O)O)=C[C@@H](OC(CC)CC)[C@@H]1NC(C)=O | 2280 | 19 | –
CCC(CC)O[C@@H]1C=C(C(=O)O)C[C@H](NCC(C)C)[C@H]1NC(C)=O | > 5000 | 78 | –
CCC(CC)O[C@@H]1C=C(C(=O)O)C[C@H](NCc2cccs2)[C@H]1NC(C)=O | 740 | 15 | –

SMILES | IC50 (Neuraminidase [1]) [nM] | IC50 (Neuraminidase [2]) [nM] | other results
CCC(CC)O[C@@H]1C=C(C(=O)O)C[C@H](NCc2ccccc2)[C@H]1NC(C)=O | 2440 | 7.1 | –
CCC(CC)O[C@@H]1C=C(C(=O)O)C[C@H](NCc2ccccc2OC)[C@H]1NC(C)=O | 1640 | 31 | –
CCC(CC)O[C@@H]1C=C(C(=O)O)C[C@H](NCc2ccccc2O)[C@H]1NC(C)=O | > 5000 | 21 | –
CCC(CC)O[C@@H]1C=C(C(=O)O)C[C@H](NCc2ccccc2Cl)[C@H]1NC(C)=O | 980 | 3.6 | –
CCC(CC)O[C@@H]1C=C(C(=O)O)C[C@H](NCc2ccccc2Br)[C@H]1NC(C)=O | 1150 | 13 | –
CCC(CC)O[C@@H]1C=C(C(=O)O)C[C@H](NCc2ccccc2F)[C@H]1NC(C)=O | 2720 | 10 | –
CCC(CC)O[C@@H]1C=C(C(=O)O)C[C@H](NC/C=C/c2ccccc2)[C@H]1NC(C)=O | 4020 | 14 | –
CCC(CC)O[C@@H]1C=C(C(=O)O)C[C@H](NCc2ccc(-c3ccccc3)cc2)[C@H]1NC(C)=O | 1200 | 1.9 | –
CCC(CC)O[C@@H]1C=C(C(=O)O)C[C@H](NCCCc2ccccc2)[C@H]1NC(C)=O | > 5000 | 32 | –
CCC(CC)O[C@@H]1C=C(C(=O)O)C[C@H](NCCCN)[C@H]1NC(C)=O | 950 | > 100 | –
CCC(CC)O[C@@H]1C=C(C(=O)O)C[C@H](NCc2ccccc2OCc2ccco2)[C@H]1NC(C)=O | 1530 | 59 | –
C=CCOc1ccccc1CN[C@H]1CC(C(=O)O)=C[C@@H](OC(CC)CC)[C@@H]1NC(C)=O | 4700 | 90 | –
CCC(CC)O[C@@H]1C=C(C(=O)O)C[C@H](NCc2ccc(-c3ccccc3)cc2Cl)[C@H]1NC(C)=O | 2020 | 11 | –
CCC(CC)O[C@@H]1C=C(C(=O)O)C[C@H](NCc2ccc(-c3ccccc3)cc2-c2ccccc2)[C@H]1NC(C)=O | 3.2 | 43 | –
CCC(CC)O[C@@H]1C=C(C(=O)O)C[C@H](NCc2ccc(-c3cccs3)cc2)[C@H]1NC(C)=O | 3520 | 2.1 | –
CC(=O)N[C@H]1C([C@H](O)[C@H](O)CO)OC(C(=O)O)=C(C/C=C/c2ccc(C)cc2)[C@@H]1O (stereo partly drawn) | – | – | Ki (Neuraminidase [3]): 1700 nM; Ki (Neuraminidase [4]): 7.3 µM; Ki (Neuraminidase [5]): 219 µM
CC(=O)N[C@H]1[C@H]([C@H](O)[C@H](O)CO)OC(C(=O)O)=C[C@@H]1NC(=N)NC(=O)CSc1cccc2ccccc12 | – | – | IC50 (Neuraminidase [6]): 21 nM; IC50 (Neuraminidase [7]): 25 nM
CCC(CC)O[C@@H]1C=C(C(=O)O)C[C@H](NC(=N)N)[C@H]1NC(C)=O | 6.4 | 6.9 | –
